Data from US8420653B2, “Pyrimidine compounds and their uses” (Orchid Chemicals & Pharmaceuticals Limited, priority 2008, dated 2013).

Key:
TNF-α = assay: In vitro measurement of TNF-α in human PBMC; format: cell-based; details: for inhibition at 1 µM: Conc. (1 μM); for inhibition at 10 µM: Conc. (10 μM)
Method: In Vitro Measurement of TNF-α in Human Peripheral Blood Mononuclear Cells
This assay determines the effect of test compounds on the production of TNF a in human Peripheral Blood Mononuclear Cells (PBMC). Compounds were tested for their ability to inhibit the activity of TNF α in human PBMC. PBMC were isolated from blood (of healthy volunteers) using BD Vacutainer CPT™ (Cell preparation tube, BD Bio Science) and suspended in RPMI medium (Physiol. Res. 52, 593-598, 2003). The test compounds were pre-incubated with PBMC (0.5 million/incubation well) for 15 minutes at 37° C. and then stimulated with Lipopolysaccharide (Escherichia coli: B4; 1 μg/ml) for 18 hours at 37° C. in 5% CO2. The levels of TNF-α in the cell culture medium were estimated using enzyme-linked immunosorbent assay performed in a 96 well format as per the procedure of the manufacturer (Cayman Chemical, Ann Arbor, USA).

[1] = test system: Oxazolone induced dermatitis; assay: Psoriasis model, oxazolone induced dermatitis; format: in vivo, mice; details: Table XVb summary, dermatitis model not specified
Method: Inhibitory Activity in Psoriasis Model Oxazolone induced dermatitis in mice was performed as described in the literature. Female Balb/c were selected in the age of 6-7 weeks for the study and 20-25 g. Mice were sensitized with oxazolone (15%) from Day 1 to day 6 by applying it on the shaved abdomen. Elicitation was done with oxazolone (2%) on the ear on day 7. Test compounds were applied topically on the ear 15 minutes and 6 hours post oxazolone application on day 7. 24 hours after oxazolone application, ear thickness is measured and ear were excised under anesthesia and weighed.

DSS Induced colitis = assay: IBD-DSS model (DSS induced colitis); format: in vivo, mice; details: Table XVb summary
Method: Inhibitory Activity in IBD-DSS Model
DSS Induced colitis test was performed as described by Axelsson et al., 1998. Male Balb/c mice were selected in the age of 7-8 weeks for the study. Colitis in mice was induced by providing DSS (2%) in the drinking water from day 1 to 6. Mice were dosed from Day 1 to 6 with test compound suspended in vehicle containing 0.25% carboxymethyl cellulose and 0.5% Tween 80. The control animals received vehicle alone. Body weight and disease activity index was recorded daily during the experiment. After 6 days of treatment, animals were sacrificed; colon weight and colon length was recorded.

[2] = target: T1, purified recombinant COX-2 (Homo sapiens, UniProt P35354); assay: COX-2 enzyme based assay; format: biochemical; details: for inhibition at 10 µM: read-out: % Inhibition in rEnzyme Assay COX-2; for COX2 at 10 μm: Table XVa summary
T1 sequence (P35354 18-604): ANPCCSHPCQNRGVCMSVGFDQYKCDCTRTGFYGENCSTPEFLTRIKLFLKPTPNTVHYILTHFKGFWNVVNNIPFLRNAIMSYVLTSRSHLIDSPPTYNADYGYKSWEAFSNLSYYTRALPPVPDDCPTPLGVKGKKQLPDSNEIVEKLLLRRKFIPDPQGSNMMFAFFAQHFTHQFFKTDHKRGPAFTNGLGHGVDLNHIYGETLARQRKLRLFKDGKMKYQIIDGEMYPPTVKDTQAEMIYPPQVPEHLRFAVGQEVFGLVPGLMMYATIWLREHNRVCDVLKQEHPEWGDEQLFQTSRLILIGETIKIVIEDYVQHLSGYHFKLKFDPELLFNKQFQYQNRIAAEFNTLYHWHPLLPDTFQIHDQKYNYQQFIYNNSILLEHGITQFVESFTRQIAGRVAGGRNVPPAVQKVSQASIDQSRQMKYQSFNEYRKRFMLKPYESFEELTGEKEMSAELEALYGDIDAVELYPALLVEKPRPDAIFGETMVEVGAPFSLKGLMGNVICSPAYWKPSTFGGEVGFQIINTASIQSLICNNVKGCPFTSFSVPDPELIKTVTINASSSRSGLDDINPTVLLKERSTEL
Method: (§1) COX-1 and COX-2 enzyme based assays were carried out to check the inhibitory potential of the test compounds on the production of prostaglandin by purified recombinant COX-1/COX-2 enzyme (Proc. Nat. Acad. Sci. USA, 88, 2692-2696, 1991; J. Clin. Immunoassay 15, 116-120, 1992). In this assay, the potential of the test compound to inhibit the production of prostaglandin either by COX-1 or COX-2 from arachidonic acid (substrate) was measured. This was an enzyme based in-vitro assay to evaluate selective COX inhibition with good reproducibility.
(§2) Arachidonic acid was converted to PGH2 (Intermediate product) by COX1/COX-2 in the presence or absence of the test compound. The reaction was carried out at 37° C. and after 2 minutes it was stopped by adding 1M HCl. Intermediate product PGH2 was converted to a stable prostanoid product PGF2α by SnCl2 reduction. The amount of PGF2α produced in the reaction was inversely proportional to the COX inhibitory potential of the test compound. The prostanoid product was quantified via enzyme immunoassay (EIA) using a broadly specific antibody that binds to all the major forms of prostaglandin, using Cayman ELISA kit as per the procedure outlined by the manufacturer (Cayman Chemicals, Ann Arbor, USA).

TPA induced dermatitis = assay: Psoriasis model, TPA induced dermatitis; format: in vivo; details: mice, topical on the ears
Method: Inhibitory Activity in Psoriasis Model TPA induced dermatitis in mice was performed using the protocol described in Eur J Pharmacol 507, 253-259, 2005. Balb/c mice were acclimatized to laboratory conditions 5-7 days prior to the start of the experiment. They were randomly distributed to various groups based on body weight. The baseline ear thickness of the animal's both ears using thickness gauge was measured. For each animal 20 μl of that contains 2.5 μg of TPA was applied with help of micropipettor with disposable tips. Test compound was applied topically to both inner and outer surface of the both the ears i.e. left and right ear with acetone as control after 30 minutes 6 hours and 24 hours after application of TPA (20 μl). Ear thickness was measured after 6 and 24 hours in animals, while for ear weight ears were excised under anesthesia and weighed.

[3] = test system: purified recombinant COX-1; assay: COX-1 enzyme based assay; format: biochemical
Method: as §1, §2

IL-6 = assay: In vitro measurement of Interleukin-6 in human PBMC; format: cell-based; details: Table XVa summary
Method: In Vitro Measurement of Interleukin-6 (IL-6)
This assay determines the effect of test compounds on the production of IL-6 in human PBMC (Physiol. Res. 52, 593-598, 2003). Compounds were tested for their ability to inhibit the activity of IL-6 in human PBMC. PBMC were isolated from blood using BD Vacutainer CPT™ Cell preparation tube (BD Bio Science) and suspended in RPMI medium. The test compounds were pre-incubated with PBMC (0.5 million/incubation well) for 15 minutes at 37° C. and then stimulated with Lipopolysaccharide (Escherichia coli: B4; 1 μg/ml) for 18 hours at 37° C. in 5% CO2. The levels of IL-6 in cell culture medium were estimated using enzyme-linked immunosorbent assay performed in a 96 well format as per the procedure of the manufacturer (Cayman Chemical, Ann Arbor, USA).

inhibition at 10 µM [2] [%]	COX2 at 10 μm [2]	% Inhibition in rEnzyme Assay COX-1 ([3]; 10 μM) [%]	COX1 at 10 μm ([3]; Table XVa summary, 10 μm)	Compound	inhibition at 1 µM (TNF-α) [%]	inhibition at 10 µM (TNF-α) [%]	Psoriasis Ear thickness [1]	IBD DAI (DSS Induced colitis)	Psoriasis-acute TPA induced dermatitis % inhibition Ear Wt (TPA induced dermatitis) [%]	Psoriasis-acute TPA induced dermatitis % inhibition Ear thickness (TPA induced dermatitis) [%]	IL-6 at 10 μm (IL-6)
20	20			NS(=O)(=O)c1cccc(-c2c(-c3ccc(F)cc3)nc(C(F)(F)F)nc2-n2ccnc2)c1 [Example 80, 3-[4-(4-Fluorophenyl)-6-(1H-imidazol-1-yl)-2-(trifluoromethyl)pyrimidin-5-yl]benzenesulfonamide]	50	78	19	35	18.9	19.2	
31	31	32	32	CCOC(=O)C1CCN(c2nc(C(F)(F)F)nc(-c3ccc(F)cc3)c2-c2cccc(S(N)(=O)=O)c2)CC1 [Example 59, Ethyl-1-[5-(3-aminosulfonylphenyl)-6-(4-fluorophenyl)-2-(trifluoromethyl)pyrimidin-4-yl]piperidine-4-carboxylate]	87	92					37
